Reference: patent publication US5990144A, “4-aminoalkoxy-1,3-dihydrobenzoimidazol-2-one dopamine autoreceptor agonists” (American Home Products Corporation, priority 1998, dated 1999)

Key:
dopamine D-2 receptor = molecular target: T1, dopamine D-2 receptor (Rattus norvegicus, UniProt P61169); assay: Affinity for dopamine D-2 receptor, 3H-spiroperidol (Spiper.) binding, homogenized limbic brain tissue; conditions: read-out: IC50 (nM) D2 Spiper
T1 construct: homogenized limbic brain tissue; from tissue; host or cells: limbic brain tissue (homogenate)
Method: High affinity for the dopamine D-2 receptor was established by the standard experimental test procedure of Fields, et al., Brain Res., 136, 578 (1977) and Yamamura et al., eds., Neurotransmitter Receptor Binding, Raven Press, N.Y. (1978) wherein homogenized limbic brain tissue is incubated with ^3 H-spiroperidol (Spiper.) and various concentrations of test compound, filtered and washed and shaken with Hydrofluor scintillation cocktail (National Diagnostics) and counted in a Packard 460 CD scintillation counter.

[1] = molecular target: T2, D2 (dopamine autoreceptor) (Rattus norvegicus, UniProt P61169); assay: Affinity for dopamine autoreceptor (D2 high-affinity agonist state), 3H-quinpirole binding, rat striatal brain tissue; conditions: read-out: IC50 (nM) D2 Quin.
T2 construct: homogenized rat striatal brain tissue; from tissue; host or cells: rat striatal brain tissue (homogenate)
Method: Affinity for the dopamine autoreceptor was established by a modification of the standard experimental test procedure of Seemen and Schaus, European Journal of Pharmacology 203: 105-109, 1991, wherein homogenized rat striatal brain tissue is incubated with ^3 H-quinpirole (Quin.) and various concentrations of test compound, filtered and washed and counted in a Betaplate scintillation counter.

T2 sequence (P61169 whole entry): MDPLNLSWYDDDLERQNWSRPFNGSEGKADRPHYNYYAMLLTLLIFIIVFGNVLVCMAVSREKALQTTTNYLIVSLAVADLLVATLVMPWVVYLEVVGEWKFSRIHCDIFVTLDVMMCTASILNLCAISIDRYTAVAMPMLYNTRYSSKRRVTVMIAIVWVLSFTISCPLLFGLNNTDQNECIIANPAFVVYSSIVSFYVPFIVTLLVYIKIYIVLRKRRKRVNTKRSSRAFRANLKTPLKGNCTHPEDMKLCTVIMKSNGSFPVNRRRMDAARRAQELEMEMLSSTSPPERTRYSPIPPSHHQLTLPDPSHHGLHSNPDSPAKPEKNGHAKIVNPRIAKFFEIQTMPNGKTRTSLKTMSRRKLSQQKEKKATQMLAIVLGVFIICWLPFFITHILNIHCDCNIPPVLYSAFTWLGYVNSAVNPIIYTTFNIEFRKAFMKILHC
T1 sequence (P61169 whole entry): as above

Row | SMILES | IC50 (dopamine D-2 receptor) [nM] | IC50 [1] [nM]
1 | O=c1[nH]c2cc(Cl)cc(OCCNCc3cccs3)c2[nH]1 [Example 10, 6-Chloro-4-{2-[(thiophen-2-ylmethyl)-amino]-ethoxy}-1,3-dihydro-benzoimidazol-2-one] | 58 | 0.47
2 | O=c1[nH]c2cccc(OCCNCc3ccccc3)c2[nH]1 [Example 1, 4-(2-Benzylamino-ethoxy)-1,3-dihydro-benzoimidazol-2-one] | 60.6 | 0.51
3 | O=c1[nH]c2cc(Cl)cc(OCCNCc3ccsc3)c2[nH]1 [Example 11, 6-Chloro-4-{2-[(thiophen-3-ylmethyl)-amino]-ethoxy}-1,3-dihydro-benzoimidazol-2-one] | 67 | 0.31
4 | O=c1[nH]c2cccc(OCCNCCCc3ccccc3)c2[nH]1 [Example 13, 4-[2-(3-Phenyl-propylamine)-ethoxy]-1,3-dihydro-benzoimidazol-2-one] | 30 | 0.3
5 | CC(C)(C)c1ccc(CNCCOc2cccc3[nH]c(=O)[nH]c23)cc1 [Example 6, 4-[2-(4-tert-Butyl-benzylamino)-ethoxy]-1,3-dihydro-benzoimidazol-2-one] | 47.8 | 0.81
6 | Cc1ccc(CNCCOc2cccc3[nH]c(=O)[nH]c23)cc1 [Example 2, 4-[2-(4-Methyl-benzylamino)-ethoxy]-1,3-dihydro-benzoimidazol-2-one] | 28.5 | 0.29
7 | Cn1c(=O)[nH]c2cccc(OCCNCc3ccccc3)c21 [Example 3, 4(7)-(2-Benzylamino-ethoxy)-1-(3)-methyl-1,3-dihydro-benzoimidazol-2-one] | 1350 | 2.92
8 | O=c1[nH]c2cccc(OCCNCc3cccs3)c2[nH]1 [Example 7, 4-{2-[(Thiophen-2-ylmethyl)-amino]-ethoxy}-1,3-dihydro-benzoimidazol-2-one] | 255 | 0.51
9 | O=c1[nH]c2cc(Cl)cc(OCCNCc3ccccc3)c2[nH]1 [Example 9, 4-(2-Benzylamino-ethoxy)-6-chloro-1,3-dihydro-benzoimidazol-2-one] | 34.6 | 0.48
10 | O=c1[nH]c2cccc(OCCN3CCc4ccccc4C3)c2[nH]1 [Example 12, 4-[2-(2,3-Dihydro-1H-isoquinolin-2yl)-ethoxy]-1,3-dihydro-benzoimidazol-2-one] | 658 | 12
11 | O=c1[nH]c2cccc(OCCNCc3ccc(Cl)cc3)c2[nH]1 [Example 8, 4-[2-(4-Chloro-benzylamino)-ethoxy]-1,3-dihydro-benzoimidazol-2-one] | 99.5 | 0.3
12 | O=c1[nH]c2cccc(OCCNCc3cccc4ccccc34)c2[nH]1 [Example 5, 4-{2-[(Naphthalen-1-ylmethyl)-amino]-ethoxy}-1,3-dihydro-benzoimidazol-2-one] | 38.7 | 0.6
13 | O=c1[nH]c2cccc(OCCCNCc3ccccc3)c2[nH]1 [Example 4, 4-(3-Benzylamino-propoxy)-1,3-dihydro-benzoimidazol-2-one] | 5980 | 126
